Values of other authors as cited in patent US20260115176A1, “ALLOSTERIC MODULATORS OF CANNABINOID RECEPTORS AND METHODS OF TREATING NEUROPATHIC PAIN” (The Board of Trustees of the Leland Stanford Junior …, priority 2020, published 2026).

System: rodent model of neuropathic pain
Conditions: background statement

Cc1ccc2c(C(C[N+](=O)[O-])c3cccs3)c(-c3ccccc3)[nH]c2c1 (centres unmarked) [ZCZ-011]
efficacy in rodent model of neuropathic pain: could treat a rodent model of neuropathic pain
psychoactive or hypothermic effects: without psychoactive or hypothermic effects
